Experimental data: US20230067593A1, “NANOFORMULATIONS OF METHYL {4,6-DIAMINO-2-[5-FLUORO-1-(2-FLUOROBENZYL)-1H-PYRAZOLO[3,4-B]PYRIDIN-3 -YL]PYRIMIDIN-5-YL} CARBAMATE” (ADVERIO PHARMA GMBH, priority 2020, published 2023)

Test: Screening experiments of nanosuspensions with different stabilizers (wet bead milling, planetary mill)
Format: physicochemical
Details: wet bead milling process according to Examples 1-3
Experimental: Most of the screening experiments of Example 1 were done in a planetary ball mill (PBM) of type Pulverisette 5. For sample preparation, the micronized compound of the formula (I) was predispersed in aqueous polymer surfactant solution and transferred into the grinding chamber (PET 23ml) which was filled with milling beads. The water contained in the solution was used as dispersing agent. As grinding media (0.4 - 0.6 mm) the Silibeads® zirconium oxide (yttrium stabilized) with a bulk density of 3.9 kg/l from Sigmund Lindner (Germany) were used. The milling beads fill level was 60% of the grinding chamber volume. Care was taken not to leave any air inclusions in the grinding chamber, as this would have a negative effect on the grinding process. The grinding time was 90 minutes at 400 rotations per minute. Four grinding chambers could be fed into the PBM per grinding operation. Thus, after separation of the grinding media, about 40 - 45 g suspension per grinding process could be produced.
The compound of formula (I) in crystalline form of modification I was produced according to example 13, method E of WO 2013/076168. Before nanomilling, the compound of formula (I) in crystalline form of modification I was micronized. For the screening experiments many different formulations were tested. For these experiments the duration of milling was 60 min. […]

## COC(=O)Nc1c(N)nc(-c2nn(Cc3ccccc3F)c3ncc(F)cc23)nc1N [Vericiguat, methyl {4,6-diamino-2-[5-fluoro-1-(2-fluorobenzyl)-1H-pyrazolo[3,4-b]pyridin-3-yl]pyrimidin-5-yl}carbamate]
  d50 after milling: < 200 nm
